# Assay results taken from patent US20070049564A1 (Wyeth, priority 2005, published 2007).
# Where two headings read alike, the source gives them in different places.
# Experiments:
# Staph. aureus Smith = test: In vivo activity (oral, iv; ED50) against Staph. aureus Smith in mice
# Experimental: Representative examples of compounds of Formula I were tested for the oral efficacy using S. aureus Smith in mice.
# E. faecalis GC 2267 = test: MIC, broth microdilution; conditions: Enterococcus faecalis
# E. coli GC 2272 = test: MIC, broth microdilution; conditions: Escherichia coli
# P. aeruginosa GC 2214 = test: MIC, broth microdilution; conditions: Pseudomonas aeruginosa
# E. coli GC 6465 = test: MIC, broth microdilution; conditions: Escherichia coli
# S. pneumoniae+ GC 4465 = test: MIC, broth microdilution; conditions: Streptococcus pneumoniae
# E. coli GC 4559 = test: MIC, broth microdilution; conditions: Escherichia coli
# S. aureus GC 1131 = test: MIC, broth microdilution; conditions: Staphylococcus aureus
# E. coli GC 2234 = test: MIC, broth microdilution; conditions: Escherichia coli
# E. coli GC 2231 = test: MIC, broth microdilution; conditions: Escherichia coli
# E. coli GC 2203 = test: MIC, broth microdilution; conditions: Escherichia coli
# E. faecalis GC 2242 = test: MIC, broth microdilution; conditions: Enterococcus faecalis
# S. pneumoniae* GC 4465 = test: MIC, broth microdilution; conditions: Streptococcus pneumoniae
# S. aureus GC 2216 = test: MIC, broth microdilution; conditions: Staphylococcus aureus
# E. coli GC 4560 = test: MIC, broth microdilution; conditions: Escherichia coli
# S. aureus GC 4536 = test: MIC, broth microdilution; conditions: Staphylococcus aureus
# S. epidermidis GC 4935 = test: MIC, broth microdilution; conditions: Staphylococcus epidermidis
# S. aureus GC 6466 = test: MIC, broth microdilution; conditions: Staphylococcus aureus
# E. coli GC 2232 = test: MIC, broth microdilution; conditions: Escherichia coli
# S. aureus GC 6467 = test: MIC, broth microdilution; conditions: Staphylococcus aureus
# [1] = read-out: MINIMAL INHIBITORY CONCENTRATION MIC, Human Serum
# [2] = read-out: MINIMAL INHIBITORY CONCENTRATION MIC, Mouse Serum
# [3] = read-out: MINIMAL INHIBITORY CONCENTRATION MIC, Water
compound,measurement,setting,value
"CN(C)c1cc(NC(=O)CN(C(=O)OCOC(=O)c2ccc(F)cc2)C(C)(C)C)c(O)c2c1C[C@H]1C[C@H]3[C@H](N(C)C)C(O)=C(C(N)=O)C(=O)[C@@]3(O)C(O)=C1C2=O [Example 52, ({[(2-{[(5aR,6aS,7S,10aS)-9-(aminocarbonyl)-4,7-bis(dimethylamino)-1,8,10a,11-tetrahydroxy-10,12-dioxo-5,5a,6,6a,7,10,10a,12-octahydrotetracen-2-yl]amino}-2-oxoethyl)(tert-butyl)amino]carbonyl}oxy)methyl 4-fluorobenzoate]",ED50,"Staph. aureus Smith; Staphylococcus aureus, in Mus musculus, iv, read-out: ED50 SIV (Staph aureus Smith)",1.29 mg/kg
same,ED50,"Staph. aureus Smith; Staphylococcus aureus, in Mus musculus, po, read-out: ED50 SOD (Staph aureus Smith)",10.7 mg/kg
same,ED50,"Staph. aureus Smith; Staphylococcus aureus, in Mus musculus, po, read-out: ED50 Staph Smith SOD",10.7 mg/kg
same,ED50,"Staph. aureus Smith; iv, read-out: ED50 Staph Smith SIV",1.29 mg/kg
same,MIC,"E. faecalis GC 2267; GC2267, read-out: MINIMAL INHIBITORY CONCENTRATION MIC, Human Serum",4 µg/mL
same,MIC,"E. faecalis GC 2267; GC2267, read-out: MINIMAL INHIBITORY CONCENTRATION MIC, Mouse Serum",0.5 µg/mL
same,MIC,"E. faecalis GC 2267; GC2267, read-out: MINIMAL INHIBITORY CONCENTRATION MIC, Water",4 µg/mL
same,MIC,"E. coli GC 2272; GC2272, read-out: MINIMAL INHIBITORY CONCENTRATION MIC, Human Serum",4 µg/mL
same,MIC,"E. coli GC 2272; GC2272, read-out: MINIMAL INHIBITORY CONCENTRATION MIC, Mouse Serum",0.5 µg/mL
same,MIC,"E. coli GC 2272; GC2272, read-out: MINIMAL INHIBITORY CONCENTRATION MIC, Water",4 µg/mL
same,MIC,"P. aeruginosa GC 2214; GC2214, read-out: MINIMAL INHIBITORY CONCENTRATION MIC, Human Serum",> 64 µg/mL
same,MIC,"P. aeruginosa GC 2214; GC2214, read-out: MINIMAL INHIBITORY CONCENTRATION MIC, Mouse Serum",64 µg/mL
same,MIC,"P. aeruginosa GC 2214; GC2214, read-out: MINIMAL INHIBITORY CONCENTRATION MIC, Water",> 64 µg/mL
same,MIC,"E. coli GC 6465; GC6465, read-out: MINIMAL INHIBITORY CONCENTRATION MIC, Human Serum",16 µg/mL
same,MIC,"E. coli GC 6465; GC6465, read-out: MINIMAL INHIBITORY CONCENTRATION MIC, Mouse Serum",2 µg/mL
same,MIC,"E. coli GC 6465; GC6465, read-out: MINIMAL INHIBITORY CONCENTRATION MIC, Water",64 µg/mL
same,MIC,S. pneumoniae+ GC 4465; [1],4 µg/mL
same,MIC,S. pneumoniae+ GC 4465; [2],1 µg/mL
same,MIC,S. pneumoniae+ GC 4465; [3],2 µg/mL
same,MIC,"E. coli GC 4559; GC4559, read-out: MINIMAL INHIBITORY CONCENTRATION MIC, Human Serum",8 µg/mL
same,MIC,"E. coli GC 4559; GC4559, read-out: MINIMAL INHIBITORY CONCENTRATION MIC, Mouse Serum",1 µg/mL
same,MIC,"E. coli GC 4559; GC4559, read-out: MINIMAL INHIBITORY CONCENTRATION MIC, Water",8 µg/mL
same,MIC,"S. aureus GC 1131; GC1131, read-out: MINIMAL INHIBITORY CONCENTRATION MIC, Human Serum",1 µg/mL
same,MIC,"S. aureus GC 1131; GC1131, read-out: MINIMAL INHIBITORY CONCENTRATION MIC, Mouse Serum",0.5 µg/mL
same,MIC,"S. aureus GC 1131; GC1131, read-out: MINIMAL INHIBITORY CONCENTRATION MIC, Water",2 µg/mL
same,MIC,"E. coli GC 2234; GC2234, read-out: MINIMAL INHIBITORY CONCENTRATION MIC, Human Serum",4 µg/mL
same,MIC,"E. coli GC 2234; GC2234, read-out: MINIMAL INHIBITORY CONCENTRATION MIC, Mouse Serum",0.5 µg/mL
same,MIC,"E. coli GC 2234; GC2234, read-out: MINIMAL INHIBITORY CONCENTRATION MIC, Water",8 µg/mL
same,MIC,"E. coli GC 2231; GC2231, read-out: MINIMAL INHIBITORY CONCENTRATION MIC, Human Serum",8 µg/mL
same,MIC,"E. coli GC 2231; GC2231, read-out: MINIMAL INHIBITORY CONCENTRATION MIC, Mouse Serum",1 µg/mL
same,MIC,"E. coli GC 2231; GC2231, read-out: MINIMAL INHIBITORY CONCENTRATION MIC, Water",16 µg/mL
same,MIC,"E. coli GC 2203; GC2203, read-out: MINIMAL INHIBITORY CONCENTRATION MIC, Human Serum",8 µg/mL
same,MIC,"E. coli GC 2203; GC2203, read-out: MINIMAL INHIBITORY CONCENTRATION MIC, Mouse Serum",0.5 µg/mL
same,MIC,"E. coli GC 2203; GC2203, read-out: MINIMAL INHIBITORY CONCENTRATION MIC, Water",8 µg/mL
same,MIC,"E. faecalis GC 2242; GC2242, read-out: MINIMAL INHIBITORY CONCENTRATION MIC, Human Serum",4 µg/mL
same,MIC,"E. faecalis GC 2242; GC2242, read-out: MINIMAL INHIBITORY CONCENTRATION MIC, Mouse Serum",0.5 µg/mL
same,MIC,"E. faecalis GC 2242; GC2242, read-out: MINIMAL INHIBITORY CONCENTRATION MIC, Water",4 µg/mL
same,MIC,S. pneumoniae* GC 4465; [1],0.25 µg/mL
same,MIC,S. pneumoniae* GC 4465; [2],< 0.06 µg/mL
same,MIC,S. pneumoniae* GC 4465; [3],0.12 µg/mL
same,MIC,"S. aureus GC 2216; GC2216, read-out: MINIMAL INHIBITORY CONCENTRATION MIC, Human Serum",1 µg/mL
same,MIC,"S. aureus GC 2216; GC2216, read-out: MINIMAL INHIBITORY CONCENTRATION MIC, Mouse Serum",0.5 µg/mL
same,MIC,"S. aureus GC 2216; GC2216, read-out: MINIMAL INHIBITORY CONCENTRATION MIC, Water",4 µg/mL
same,MIC,"E. coli GC 4560; GC4560, read-out: MINIMAL INHIBITORY CONCENTRATION MIC, Human Serum",2 µg/mL
same,MIC,"E. coli GC 4560; GC4560, read-out: MINIMAL INHIBITORY CONCENTRATION MIC, Mouse Serum",0.25 µg/mL
same,MIC,"E. coli GC 4560; GC4560, read-out: MINIMAL INHIBITORY CONCENTRATION MIC, Water",2 µg/mL
same,MIC,"S. aureus GC 4536; GC4536, read-out: MINIMAL INHIBITORY CONCENTRATION MIC, Human Serum",0.5 µg/mL
same,MIC,"S. aureus GC 4536; GC4536, read-out: MINIMAL INHIBITORY CONCENTRATION MIC, Mouse Serum",0.5 µg/mL
same,MIC,"S. aureus GC 4536; GC4536, read-out: MINIMAL INHIBITORY CONCENTRATION MIC, Water",2 µg/mL
same,MIC,"S. epidermidis GC 4935; GC4935, read-out: MINIMAL INHIBITORY CONCENTRATION MIC, Human Serum",4 µg/mL
same,MIC,"S. epidermidis GC 4935; GC4935, read-out: MINIMAL INHIBITORY CONCENTRATION MIC, Mouse Serum",1 µg/mL
same,MIC,"S. epidermidis GC 4935; GC4935, read-out: MINIMAL INHIBITORY CONCENTRATION MIC, Water",4 µg/mL
same,MIC,"S. aureus GC 6466; GC6466, read-out: MINIMAL INHIBITORY CONCENTRATION MIC, Human Serum",1 µg/mL
same,MIC,"S. aureus GC 6466; GC6466, read-out: MINIMAL INHIBITORY CONCENTRATION MIC, Mouse Serum",0.5 µg/mL
same,MIC,"S. aureus GC 6466; GC6466, read-out: MINIMAL INHIBITORY CONCENTRATION MIC, Water",2 µg/mL
same,MIC,"E. coli GC 2232; GC2232, read-out: MINIMAL INHIBITORY CONCENTRATION MIC, Human Serum",4 µg/mL
same,MIC,"E. coli GC 2232; GC2232, read-out: MINIMAL INHIBITORY CONCENTRATION MIC, Mouse Serum",0.5 µg/mL
same,MIC,"E. coli GC 2232; GC2232, read-out: MINIMAL INHIBITORY CONCENTRATION MIC, Water",8 µg/mL
same,MIC,"S. aureus GC 6467; GC6467, read-out: MINIMAL INHIBITORY CONCENTRATION MIC, Human Serum",4 µg/mL
same,MIC,"S. aureus GC 6467; GC6467, read-out: MINIMAL INHIBITORY CONCENTRATION MIC, Mouse Serum",0.5 µg/mL
same,MIC,"S. aureus GC 6467; GC6467, read-out: MINIMAL INHIBITORY CONCENTRATION MIC, Water",4 µg/mL
